Patent US20250128203A1, “MODIFIED REDOX-ACTIVE SORBENTS FOR ELECTROCHEMICAL CARBON DIOXIDE SEPARATION” (The Johns Hopkins University, priority 2023, published 2025)
In brackets after ≈: the same amount, converted by molar mass. Several values for one entry are separate records, joined by “and”; a condition that tells them apart may be missing. Identical values can stand only once.

Tests used:
[1] = UV-vis absorption, optical band gap; format: physicochemical; conditions: UV-vis absorption (Kubelka-Munk spectra)
Protocol: UV-vis absorption spectra were recorded on a Thermo Scientific Genesys 10S UV-vis spectrophotometer.

[2] = Cyclic voltammetry of isoindigos in DMF (half-wave redox potentials under N2 or CO2); format: physicochemical; conditions: for E1/2 in N2 (first): first half-wave potential vs. Fc^+/Fc; for E1/2 in N2 (first) / E1/2 in N2 (second): 0.1 M NBu4PF6, N2, 298 K; for E1/2 in N2 (second): second half-wave potential vs. Fc^+/Fc; for E1/2 in CO2 (first or single) / Experimental 1st half-wave potential in N2: vs. Fc^+/Fc; for E1/2 in CO2 (first or single): 0.1 M NBu4PF6, CO2, 298 K; for E1/2 (IId/IId·−) in N2: Table 1, first electron transfer, N2, DMF; for Experimental 1st half-wave potential in N2: Table 5
Protocol: (§1) Electrochemical measurements were conducted using a BioLogic VSP potentiostat (BioLogic Science Instruments). For the cyclic voltammetry measurements, glassy carbon (Ø=3 mm) was used as the working electrode, platinum wire was used as the counter electrode, silver wire was used as the pseudo-reference electrode and ferrocene was used as the internal reference. In a standard cyclic voltammetry measurement, the molecule of interest (2.5 mM) was dissolved in anhydrous DMF with 100 mM NBu4PF6 as the supporting salt. Typical cyclic voltammograms were collected at a scan rate of […]. To study the effects of ionic species on the redox behaviour of the sorbent molecules, 100 mM LiClO4, NaClO4, KClO4, NBu4ClO4, sodium triflate (NaOTf), or sodium bis(trifluoromethanesulfonyl)imide (NaTFSI) was used as the supporting electrolyte salt.

[3] = CO2 binding constant (KCO2) calculated from the shift of the second reduction peak in CV; conditions: for K[CO2] / logK[CO2]: DMF; for ΔEpeak(2): difference between the second reduction peak potentials (IId·−/IId2−) in CO2 and N2
Protocol: as §1
The CO2 binding constant (KCO2) was calculated by Eq 1: […]

Solubility in DMF = format: physicochemical; conditions: for solubility: organic solvent or mixture
[4] = Chronoamperometry: reaction rate constant between isoindigo radical anion and CO2; conditions: isoindigo 5 mM in DMF, 0.1 M NBu4PF6; for kbimolecular: first CO2 binding; for kf (20% CO2): forward rate constant
Description: In electrochemistry, the Cottrell equation describes the current response (i) when the potential is a step function in time (t):
where i is current, n is the number of electrons transferred per molecule, A is the area of the electrode, C*0 is the bulk concentration of the redox-active isoindigo molecule, D is the diffusion coefficient, and t is time. The expected current for a diffusion limited electrochemical process following an ECE (electron transfer, chemical reaction, electron transfer) mechanism at a plane electrode under diffusion-controlled conditions is:
where n1 and n2 are the number of electrons transferred in the first and second step, respectively, and kf is the forward reaction rate constant of the chemical reaction. Here, to calculate kf after the first electron transfer, n2 and n1 are set to 1. Eq 3 then becomes:
The integrated Cottrell equation relates total charge Q with time for chronoamperometry: […]
Then, the constant k can be calculated, here k is assumed constant:
To calculate kf, the constant k is calculated using Eq 5 using potentiostatic measurements. Plugging in Eq 6, and rearranging Eq 4 gives:
The data for determining kf is shown in FIGS. 22 to 25 using 5 mM sorbent molecules in 0.1 M NBu4PF6 DMF electrolyte. The value k was determined using data under N2; kf was obtained under 1 bar 20% CO2 (0.0396 M CO2 in solution).

| SMILES | Optical band gap [1] | E1/2 in N2 (first) ([2]; 2.5 mM in DMF) | E1/2 in N2 (second) ([2]; 2.5 mM in DMF) | E1/2 in CO2 (first or single) ([2]; 2.5 mM in DMF) | K[CO2] ([3]; 298 K) | logK[CO2] ([3]; 298 K) | ΔEpeak(2) [3] | Solubility in DMF (Solubility in DMF) | E1/2 (IId/IId·−) in N2 [2] | logK[CO2] ([3]; Table 1) | solubility (Solubility in DMF) | CO2 release at approximately −1 V vs. Fc^+/Fc in the presence of water ([2]; 10 vol % water) | Experimental 1st half-wave potential in N2 [2] | Electrochemical behaviours in the presence of O2 ([2]; up to 16% CO2 and 20% O2, 2.5 mM in DMF, 0.1 M NBu4PF6) | Positive shift of E1/2 under CO2 compared to unmodified IId ([2]; under CO2, DMF) | kbimolecular [4] | kf (20% CO2) [4] |
| --- | --- | --- | --- | --- | --- | --- | --- | --- | --- | --- | --- | --- | --- | --- | --- | --- | --- |
| COC(=O)CNC(=O)c1ccc2c(c1)NC(=O)/C2=C1/C(=O)Nc2ccccc21 [6AIIdGly, Methyl isoindigo-6-carbonylglycinate] | 2.04 eV | −1.17, V | −1.62 V | −1.08 V | 4.3e+08 M⁻¹ | 8.63 | 0.469 V | 606 mM (≈ 229 mg/mL) | – | – | – | – | – | – | – | 19.85 M⁻¹ s⁻¹ | 0.786 s⁻¹ |
| COC(=O)c1ccc2c(c1)NC(=O)/C2=C1/C(=O)Nc2ccccc21 [6MCIId, Methyl isoindigo-6-carboxylate] | 2.03 eV | −1.12, V | −1.62 V | −1.09 V | 7.78e+08 M⁻¹ | 8.89 | 0.484 V | – | −1.12 V vs. Fc^+/Fc | 8.89 | 515 mM (≈ 165 mg/mL) | – | – | – | – | 22.45 M⁻¹ s⁻¹ | 0.889 s⁻¹ |
| O=C1Nc2ccc(Br)cc2/C1=C1\C(=O)Nc2ccc(Br)cc21 [55DBIId, 5,5′-Dibromoisoindigo] | 1.99 eV | −1.09 V and −1.09, V | −1.61 V | −1.09 V | 2.16e+09 M⁻¹ | 9.33 | 0.510 V | – | −1.09 V vs. Fc^+/Fc | 9.33 | 6.3 mM (≈ 2.65 mg/mL) | gets suppressed | −1.09 V | remained almost unaffected | – | – | – |

Second part, led by results:

| Optical band gap [1] | E1/2 in N2 (first) ([2]; 2.5 mM in DMF) | E1/2 in N2 (second) ([2]; 2.5 mM in DMF) | E1/2 in CO2 (first or single) ([2]; 2.5 mM in DMF) | K[CO2] ([3]; 298 K) | logK[CO2] ([3]; 298 K) | ΔEpeak(2) [3] | Solubility in DMF (Solubility in DMF) | E1/2 (IId/IId·−) in N2 [2] | logK[CO2] ([3]; Table 1) | solubility (Solubility in DMF) | CO2 release at approximately −1 V vs. Fc^+/Fc in the presence of water ([2]; 10 vol % water) | Experimental 1st half-wave potential in N2 [2] | Electrochemical behaviours in the presence of O2 ([2]; up to 16% CO2 and 20% O2, 2.5 mM in DMF, 0.1 M NBu4PF6) | Positive shift of E1/2 under CO2 compared to unmodified IId ([2]; under CO2, DMF) | SMILES | kbimolecular [4] | kf (20% CO2) [4] |
| --- | --- | --- | --- | --- | --- | --- | --- | --- | --- | --- | --- | --- | --- | --- | --- | --- | --- |
| 2.02 eV | −0.97, V | −1.41 V | −0.91 V | 1.17e+08 M⁻¹ | 8.07 | 0.435 V | <2.5 mM | – | – | < 2.5 mM | – | – | – | 300 mV | COC(=O)c1ccc2c(c1)NC(=O)/C2=C1/C(=O)Nc2cc(C(=O)OC)ccc21 [66DMCIId, Dimethyl isoindigo-6,6′-dicarboxylate] | – | – |
| 2.04 eV | −1.29 V and −1.29, V | −1.79 V | −1.21 V | 2.19e+09 M⁻¹ | 9.34 | 0.511 V | – | −1.29 V vs. Fc^+/Fc | 9.34 | ~230 mM (≈ 60.3 mg/mL) | – | −1.29 V | – | – | O=C1Nc2ccccc2/C1=C1\C(=O)Nc2ccccc21 [IId, Isoindigo] | – | – |
